According to patent publication US20180049965A1, “ORAL CARE METHODS AND COMPOSITIONS UTILIZING CHITOSAN-DERIVATIVE COMPOUNDS” (Synedgen Inc., priority 2009, published 2018):

What was measured:
[1] = tested on: Streptococcus mutans (ATCC 35668); experiment: Synergy of chitosan-arginine with chlorhexidine, remaining CFU after 1 hour; assay type: cell-based
Experimental: Solutions of both agents were prepared at 4× their intended final concentration. Two concentrations for each agent are used for each assay and the drugs were combined in 4 ways: […] Controls of each drug alone as well as positive (S. mutans only) and negative (media only) controls were prepared. […] After incubation, the plates were centrifuged for 10 minutes at 4000 RPM on a microtiter plate rotor, before being resuspended, sonicated, diluted and plated on BHI for remaining CPU.

[2] = tested on: Streptococcus mutans ATCC 35668 biofilms; experiment: Immediate dispersal of stationary S. mutans biofilms, crystal violet, 1 minute treatment; assay type: cell-based; details: 1.2% chlorhexidine, room temperature
Experimental: FIG. 11 depicts the immediate dispersal of Streptococcus mutans ATCC 35668 2-day old stationary biofilms treated with 100 μg/mL chitosan-arginine (43 kDa, 25% functionalized, 88% DDA, 2.28 PDI), water, or 1.2% Chlorhexidine. The biofilms were rinsed, stained with crystal violet and treated for 1 minute and rinsed.
The S. mutans biofilms were grown in 12-well untreated tissue culture plates containing BHI media supplemented with 1% sucrose for approximately 3 days. The biofilms were rinsed with water three times and stained with crystal violet for 2 minutes then rinsed three times (FIG. 11, ‘Before’). Water, 100 μg/ml chitosan-arginine or 1.2% chlorhexidine were used to treat each biofilm for 1 minute at room temperature (FIG. 11, ‘During’).

SMILES: [H]/N=C(\N/C(=N/[H])NCCCCCCNC(=N)NC(=N)Nc1ccc(Cl)cc1)Nc1ccc(Cl)cc1 [Chlorhexidine]
- Log CFU reduction beyond most active agent ([1]; Chlorhexidine 0.00625% alone (C/A 0 μg/ml)): 1.9 Log CFU
- Log CFU reduction beyond most active agent ([1]; Chlorhexidine 0.0125% alone (C/A 0 μg/ml)): 1.8 Log CFU
- biofilm after 1 minute treatment and rinsing [2]: removed from the surface
